One assay deals with T1, human HPK1 protein (Homo sapiens, UniProt Q92918).
T1 construct: recombinant human HPK1 protein (a.a. 1-346) was expressed in Sf9 insect cells; GST (N); purchased Signalchem M23-11G; host or cells: Sf9 insect cells (baculovirus)
T1 sequence (Q92918 1-346): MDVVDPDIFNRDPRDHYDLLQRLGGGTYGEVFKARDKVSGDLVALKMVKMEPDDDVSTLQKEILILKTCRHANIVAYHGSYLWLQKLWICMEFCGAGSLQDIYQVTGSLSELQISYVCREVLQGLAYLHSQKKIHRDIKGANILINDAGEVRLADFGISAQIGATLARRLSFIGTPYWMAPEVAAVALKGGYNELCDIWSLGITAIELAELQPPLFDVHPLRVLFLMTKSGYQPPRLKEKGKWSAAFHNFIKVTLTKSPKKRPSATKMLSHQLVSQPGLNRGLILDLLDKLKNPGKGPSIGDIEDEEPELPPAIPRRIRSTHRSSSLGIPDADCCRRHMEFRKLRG
The assay can be described thus: Human HPK1 protein TR-FRET assay. It counts as biochemical. The following applies: 1 mM ATP, Table 19. Summed up:
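GST-tagged HPK1 (a.a. 1-346, Sf9-expressed) at 10 nM phosphorylated 100 nM ULight CREBtide with 1 mM ATP in Tris pH 7.5, MgCl2, NP-40, DTT, 1% DMSO, 60 minutes at room temperature. Phospho-Ser133 detected by Eu-antibody TR-FRET (665/615 nm ratio); IC50 from 4-parameter fit against DMSO control.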
(In TR-FRET formats the signal depends on donor and acceptor labels being close together.)
Regarding `CCN1CCN(Cc2ccc(NC(=O)N3Cc4cc(Oc5ccnc6[nH]ccc56)cnc4C(C)C3)cc2C(F)(F)F)CC1` (centres unmarked) [compound 10, 3-((1H-Pyrrolo[2,3-b]pyridin-4-yl)oxy)-N-(4-((4-ethylpiperazin-1-yl)methyl)-3-(trifluoromethyl)phenyl)-8-methyl-7,8-dihydro-1,6-naphthyridine-6(5H)-carboxamide], the IC50 (as a rule, the concentration needed to halve the response being measured) was less than 500 nM.
On the same count and under the same terms, next, `CCN1CCN(Cc2ccc(NC(=O)N3CCc4ccc(Oc5ccnc6[nH]c(CCO)cc56)cc4[C@@H]3C)cc2C(F)(F)F)CC1` [V-24]: less than 500 nM; `CCN1CCN(Cc2ccc(NC(=O)N3CCc4ccc(Oc5ncnn6cc(F)cc56)cc4C3)cc2C(F)(F)F)CC1` [II-8]: less than 500 nM.
Still for that read-out and setting: to `CCN1CCN(Cc2ccc(NC(=O)N3CCc4ccc(Oc5ncnn6cc(C#N)cc56)cc4[C@@H]3C)cc2C(F)(F)F)CC1` [V-9] belongs less than 500 nM; to `CCN1CCN(Cc2ccc(NC(=O)N3CCc4ccc(Oc5ccnc6[nH]ccc56)cc4C3=O)cc2C(F)(F)F)CC1` [X-2], 500 to 5000 nM.
The same measure, in the same setting: next, `CCN1CCN(Cc2ccc(NC(=O)N3CCc4ccc(Oc5ccnn6cc(Cl)cc56)cc4C3)cc2C(F)(F)F)CC1` [II-23]: less than 500 nM.
In the case of `CCN1CCN(Cc2ccc(NC(=O)N3CCc4ccc(Oc5cn[nH]c5)cc4C3)cc2C(F)(F)F)CC1` [II-21], the IC50 lay in the range of 500 to 5000 nM.
Same read-out and setting: to `CCN1CCN(Cc2ccc(NC(=O)N3CCc4ccc(Oc5ccnc6[nH]ccc56)c(C)c4C3)cc2C(F)(F)F)CC1` [III-2] belongs less than 500 nM.
On the same count and under the same terms, to `C[C@H]1c2cc(Oc3ccnc4[nH]ccc34)ccc2CCN1C(=O)Nc1ccc(CN2CCN(C3COC3)CC2)c(C(F)(F)F)c1` [V-21] belongs 500 to 5000 nM; to `CCN1CCN(Cc2ccc(NC(=O)N3Cc4cc(Oc5ccnc6[nH]ncc56)cnc4C(C)C3)cc2C(F)(F)F)CC1` (centres unmarked) [VII-15], less than 500 nM; to `CCN1CCN(Cc2ccc(NC(=O)N3CCc4ncc(Oc5ncnn6cccc56)cc4C3)cc2C(F)(F)F)CC1` [compound 8, N-[4-[(4-Ethylpiperazin-1-yl)methyl]-3-(trifluoromethyl)phenyl]-3-[pyrrolo[2,1-f][1,2,4]triazin-4-yloxy]-5,6,7,8-tetrahydro-1,6-naphthyridine-6-carboxamide], less than 500 nM.
`C[C@H]1c2cc(Oc3ccnc4[nH]ccc34)ccc2CCN1C(=O)Nc1ccc(CN2CCN(C)CC2)c(C(F)(F)F)c1` [V-2] displayed an IC50 of less than 500 nM.
On the same count and under the same terms, to `Cc1cc2c(Oc3ccc4c(c3)[C@H](C)N(C(=O)Nc3ccc5c(N6CCN(C)CC6)cccc5c3)CC4)ccnc2[nH]1` [X-6] belongs less than 500 nM.
Same read-out and setting: next, `CCN1CCN(Cc2ccc(NC(=O)N3CCc4ccc(Oc5ccnc6[nH]c(=O)ccc56)cc4C3)cc2C(F)(F)F)CC1` [II-12]: less than 500 nM.

The same assay, now with this note: 1 mM ATP, Table 20.
As for `CC[C@H]1CN(C(=O)Nc2ccc(CN3CCN(C)CC3)c(C(F)(F)F)c2)Cc2cc(Oc3ccnc4[nH]c(C(N)=O)cc34)cnc21` [XIV-84], the IC50 is less than 500 nM.
The same measure, in the same setting: next, `C[C@H]1CN(C(=O)Nc2ccc(CN3CCN(C)CC3)c(C(F)(F)F)c2)Cc2cc(Oc3ccnc4[nH]c(C(N)=O)cc34)ccc21` [XV-31]: less than 500 nM; `CCN1CCN(Cc2ccc(NC(=O)N3CCc4ccc(Oc5cc(NC(=O)C6CC6)ncc5F)cc4[C@@H]3C)cc2C(F)(F)F)CC1` [XIII-15]: less than 500 nM.
`CC[C@@H]1CN(C(=O)Nc2ccc(CN3CCN(C)CC3)c(C(F)F)c2)Cc2cc(Oc3ncnc4[nH]c(C5CC5)cc34)ccc21` [XV-1] showed an IC50 of less than 500 nM.
The same measure, in the same setting: next, `CC[C@H]1CN(C(=O)Nc2ccc(CN3CCNCC3)c(C(F)(F)F)c2)Cc2cc(Oc3ccnn4cc(C(=O)NC)nc34)cnc21` [XIV-129]: 500 to 5000 nM; `CC[C@H]1CN(C(=O)Nc2ccc(CN3CCN(C)CC3)c(C(F)(F)F)c2)Cc2cc(Oc3ccnc4[nH]c(C(=O)N(C)C)cc34)cnc21` [compound 21, (8S)-3-[[2-(dimethylcarbamoyl)-1H-pyrrolo[2,3-b]pyridin-4-yl]oxy]-8-ethyl-N-[4-[(4-methylpiperazin-1-yl)methyl]-3-(trifluoromethyl)phenyl]-7,8-dihydro-5H-1,6-naphthyridine-6-carboxamide]: less than 500 nM.
The same measure, in the same setting: to `CC[C@H]1CN(C(=O)Nc2ccc(CN3CCN(C)CC3)c(C(F)(F)F)c2)Cc2cc(Oc3ccnn4cc(C(=O)NC)nc34)cnc21` [XIV-120] belongs 500 to 5000 nM; to `CCN1CCN(Cc2ccc(NC(=O)N3Cc4cc(Oc5ccnc6[nH]c(CO)cc56)cnc4[C@H](C)C3)cc2C(F)(F)F)CC1` [XIV-14], less than 500 nM; to `CN1CCN(Cc2ncc(NC(=O)N3CCc4cc(F)c(Nc5c(F)cnc6[nH]c(-c7cnn(C)c7)cc56)cc4C3)cc2C(F)(F)F)CC1` [XVII-4], less than 500 nM.

Source of the values: patent US20210139484A1, “DIHYDROISOQUINOLINE-2(1H)-CARBOXAMIDE AND RELATED COMPOUNDS AND THEIR USE IN TREATING MEDICAL CONDITIONS” (GOSSAMER BIO SERVICES, INC., priority 2018, published 2021).
